Test results published in US10214512B2, “Factor XIA inhibitors” (MERCK SHARP & DOHME CORP., priority 2015, dated 2019).

Assays:
[1] = target: purified human Factor XIa (Homo sapiens (Human), UniProt P03951); assay: Factor XIa Assay; type: biochemical; details: purified human Factor XIa 40 pM; substrate Z-Gly-Pro-Arg-AFC 100 μM; 50 mM HEPES pH 7.4; read-out: Human FXIa Ki
Procedure, shortened: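 Ki obtained from the dependence of uninhibited/inhibited initial-velocity ratio on inhibitor concentration, under a competitive-inhibition model. Reactions used 100 μM Z-Gly-Pro-Arg-AFC and 40 pM final human Factor XIa in pH 7.4 HEPES buffer with NaCl, CaCl2 and PEG 8000; run at rt or 37° C following pre-equilibration.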

[2] = target: purified Human plasma Kallikrein (Homo sapiens (Human), UniProt P03952); assay: Kallikrein Assay; type: biochemical; details: purified Human plasma Kallikrein 0.5 nM; substrate Acetyl-K-P-R-AFC; 50 mM HEPES pH 7.4; Ki from IC50 by Cheng Prusoff
Procedure, shortened: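 Purified human plasma kallikrein (0.5 nM) with fluorogenic Ac-K-P-R-AFC ([…]) in 50 mM HEPES pH 7.4, 150 mM NaCl, 5 mM CaCl2, 0.1% PEG 8000, at rt or 37 °C. Substrate hydrolysis rate read with and without inhibitor; IC50 from four-parameter logistic fit, converted to Ki by Cheng–Prusoff.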

Chain of purified human Factor XIa (P03951 388-625): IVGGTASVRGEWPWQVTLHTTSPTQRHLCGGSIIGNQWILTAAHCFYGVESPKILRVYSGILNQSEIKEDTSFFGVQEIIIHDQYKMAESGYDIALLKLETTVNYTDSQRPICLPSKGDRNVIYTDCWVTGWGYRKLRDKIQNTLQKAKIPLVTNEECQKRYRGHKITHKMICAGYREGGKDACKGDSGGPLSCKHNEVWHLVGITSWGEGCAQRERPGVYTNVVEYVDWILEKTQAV
Chain of purified human Factor XIa (P03951 19-387 partner): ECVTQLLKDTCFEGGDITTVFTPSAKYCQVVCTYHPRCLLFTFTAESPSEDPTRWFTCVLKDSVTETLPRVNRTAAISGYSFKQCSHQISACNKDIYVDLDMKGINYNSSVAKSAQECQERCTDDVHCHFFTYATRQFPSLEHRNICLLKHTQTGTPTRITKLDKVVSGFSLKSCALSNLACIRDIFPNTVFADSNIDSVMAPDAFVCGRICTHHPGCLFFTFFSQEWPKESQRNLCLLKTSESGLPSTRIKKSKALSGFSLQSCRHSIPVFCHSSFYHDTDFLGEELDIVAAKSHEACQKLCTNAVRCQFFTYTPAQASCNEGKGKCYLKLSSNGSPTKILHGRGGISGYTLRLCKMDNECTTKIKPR
Chain of purified Human plasma Kallikrein (P03952 391-638): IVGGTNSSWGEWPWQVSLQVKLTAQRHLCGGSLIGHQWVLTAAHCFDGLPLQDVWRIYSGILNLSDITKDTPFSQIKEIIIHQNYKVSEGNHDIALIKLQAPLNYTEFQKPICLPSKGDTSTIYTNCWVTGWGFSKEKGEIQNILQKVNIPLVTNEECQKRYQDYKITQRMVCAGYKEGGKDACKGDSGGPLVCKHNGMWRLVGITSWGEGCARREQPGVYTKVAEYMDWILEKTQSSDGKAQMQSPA
Chain of purified Human plasma Kallikrein (P03952 20-390 partner): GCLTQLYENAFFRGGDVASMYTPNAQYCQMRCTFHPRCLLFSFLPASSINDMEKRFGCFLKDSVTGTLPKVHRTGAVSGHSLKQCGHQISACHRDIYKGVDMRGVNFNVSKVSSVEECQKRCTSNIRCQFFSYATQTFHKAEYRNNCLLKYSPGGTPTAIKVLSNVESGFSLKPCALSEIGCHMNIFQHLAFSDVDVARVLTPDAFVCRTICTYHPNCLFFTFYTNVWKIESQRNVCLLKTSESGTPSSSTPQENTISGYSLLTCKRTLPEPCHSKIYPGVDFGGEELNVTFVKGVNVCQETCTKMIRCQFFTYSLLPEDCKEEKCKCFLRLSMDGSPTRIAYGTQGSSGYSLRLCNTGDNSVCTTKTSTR

Row | Compound | Ki [1] [nM] | Ki [2] [nM]
1 | COC(=O)Nc1ccc2c(c1)NC(=O)CCCCC(c1ccc(-c3c(F)cccc3OC(F)F)c[n+]1[O-])c1nc-2c[nH]1 (single isomer, unassigned) [Example 101-a, (Z)-5-(2-(Difluoromethoxy)-6-fluorophenyl)-2-(2^4-((methoxycarbonyl)amino)-4-oxo-1^1H-3-aza-1(4,2)-imidazola-2(1,2) -benzenacyclononaphane-9-yl)pyridine 1-oxide] | 0.34 | 3.9
2 | O=C1CCCCC(c2ccc(-c3cc(Cl)ccc3-n3cnnn3)c[n+]2[O-])c2cc[n+]([O-])c(c2)-c2cc(F)ccc2N1 (stereo not drawn) [Example 80, 9-(5-(5-chloro-2-(1h-tetrazol-1-yl)phenyl)-1-oxidopyridin-2-yl)-2^5-fluoro-4-oxo-3-aza-1(2,4)-pyridin-1-iuma-2(1,2)-benzenacyclononaphane 1^1-oxide] | 0.59 | 13.3
3 | COC(=O)Nc1ccc2c(c1)NC(=O)CCCCC(c1ccc(-c3cc(Cl)ccc3OC(F)(F)F)c[n+]1[O-])c1nc-2c[nH]1 (single isomer, unassigned) [Example 99-a, (Z)-5-(5-chloro-2-(trifluoromethoxy)phenyl)-2-(2^4-((methoxycarbonyl)amino)-4-oxo-1^1H-3-aza-1(4,2)-imidazola-2(1,2) -benzenacyclononaphane-9-yl)pyridine 1-oxide] | 0.17 | 1.21
4 | COC(=O)Nc1ccc2c(c1)NC(=O)CCCCC(c1cc(OC)c(-c3c(F)ccc(Cl)c3F)c[n+]1[O-])c1cccc-2c1 (single isomer, unassigned) [Example 87-a, 5-(3-Chloro-2,6-difluorophenyl)-4-methoxy-2-(2^4-((methoxycarbonyl)amino)-4-oxo-3-aza-1(1,3),2(1,2) -dibenzenacyclononaphane-9-yl)pyridine 1-oxide] | 4.1 | 12.7
5 | O=C1CCCCC(c2ccc(-c3cc(Cl)ccc3-n3cc(C(F)(F)F)nn3)c[n+]2[O-])c2cccc(c2)-c2c(cnn2C(F)F)N1 (stereo not drawn) [Example 165, 5-(5-chloro-2-(4-(trifluoromethyl)-1H-1,2,3-triazol-1-yl)phenyl)-2-(1^1-(difluoromethyl)-8-oxo-1^1H-9-aza-1(5,4)-pyrazola-2(1,3) -benzenacyclononaphane-3-Yl)pyridine 1-oxide] | 0.21 | 5.76
6 | C[C@@H]1CCC[C@H](c2ccc(-c3cc(Cl)ccc3-n3cnnn3)c[n+]2[O-])c2cccc(c2)-c2cc(F)ccc2NC1=O [Example 3-d, 5-(5-Chloro-2-(1H-tetrazol-1-yl)phenyl)-2-((5R,9S)-2^5-fluoro-5-methyl-4-oxo-3-aza-1(1,3),2(1,2)-dibenzenacyclononaphane-9-yl)pyridine 1-oxide] | 0.18 | 0.59
7 | CCc1[nH]c2nc1-c1ccc(NC(=O)OC)cc1NC(=O)CCCC[C@@H]2c1ccc(-c2cc(F)ccc2OC(F)(F)F)c[n+]1[O-] (single isomer, unassigned) [Example 133] | 0.46 | 5.08
8 | C[C@@H]1CCC[C@@H](c2ccc(-c3cc(Cl)ccc3-n3cnnn3)c[n+]2[O-])c2cccc(c2)-c2cc(F)ccc2NC1=O [Example 3-a, 5-(5-chloro-2-(1H-tetrazol-1-yl)phenyl)-2-((5R,9R)-2^5-fluoro-5-methyl-4-oxo-3-aza-1(1,3),2(1,2)-dibenzenacyclononaphane-9-yl)pyridine 1-oxide] | 27.7 | 79.8
9 | COC(=O)Nc1ccc2c(c1)NC(=O)CCCC[C@H](c1ccc(-c3ccccc3C(F)(F)F)c[n+]1[O-])c1nc-2c(C)[nH]1 (single isomer, unassigned) [Example 121] | 0.43 | 3.9
10 | O=C1CCCCC(c2ccc(-c3c(-n4cnnn4)ccc(Cl)c3F)c[n+]2[O-])c2cccc(c2)-c2cc(C(=O)O)ccc2N1 (single isomer, unassigned) [Example 5-a, 2-(2^5-carboxy-4-oxo-3-aza-1(1,3),2(1,2)-dibenzenacyclononaphane-9-yl)-5-(3-chloro-2-fluoro-6-(1H-tetrazol-1-yl)phenyl)pyridine 1-oxide] | 0.13 | 3.15
11 | COC(=O)Nc1ccc2c(c1)NC(=O)CCCC[C@H](c1ccc(-c3cc(Cl)ccc3-c3cnn(C(F)F)c3)c[n+]1[O-])c1cccc-2c1 (single isomer, unassigned) [Example 42] | 0.44 | 3.1
12 | COC(=O)Nc1ccc2c(c1)NC(=O)CCCCC(c1ccc(-c3cc(Cl)ccc3-n3cnnn3)cn1)c1cc(F)cc-2c1 (stereo not drawn) [Example 51, Methyl (9-(5-(5-chloro-2-(1H-tetrazol-1-yl)phenyl)pyridin-2-yl)-1^5-fluoro-4-oxo-3-aza-1(1,3),2(1,2)-dinenzenacyclononaphane-2^4-yl)carbamate] | 2.76 | 46.6
13 | CCc1[nH]c2nc1-c1ccc(NC(=O)OC)cc1NC(=O)CCCCC2c1ccc(-c2c(F)ccc(Cl)c2F)c[n+]1[O-] (single isomer, unassigned) [Example 112-a, (Z)-5-(3-Chloro-2,6-difluorophenyl)-2-(1^5-ethyl-2^4-((Methoxycarbonyl)amino)-4-oxo-1^1H-3-AZA-1(4,2)-imidazola-2(1,2) -benzenacyclononaphane-9-yl)pyridine 1-oxide] | 0.13 | 0.26
14 | COC(=O)Nc1ccc2c(c1)NC(=O)CCCCC(c1ccc(-c3cc(Cl)ccc3-n3cnnn3)c[n+]1[O-])c1cc(F)cc-2c1 (stereo not drawn) [Example 52, 5-(5-chloro-2-(1h-tetrazol-1-yl)phenyl)-2-(1^5-fluoro-2^4-((methoxycarbonyl)amino)-4-oxo-3-aza-1(1,3),2(1,2) -dinenzenacyclononaphane-9-yl)pyridine 1-oxide] | 0.32 | 1.43
15 | COC(=O)Nc1ccc2c(c1)NC(=O)CCCC[C@H](c1ccc(-c3cc(Cl)ccc3OC(F)(F)F)c[n+]1[O-])c1cccc-2c1 (single isomer, unassigned) [Example 30] | 0.38 | 6.77
16 | COC(=O)Nc1ccc2c(c1)NC(=O)CCCCC(c1ccc(-c3c(F)ccc(Cl)c3F)c[n+]1[O-])c1nc-2c(Cl)[nH]1 (single isomer, unassigned) [Example 110-a, (Z)-5-(3-Chloro-2,6-difluorophenyl)-2-(1^5-chloro-2^4-((Methoxycarbonyl)amino)-4-oxo-1^1H-3-aza-1(4,2)-imidazola-2(1,2) -benzenacyclononaphane-9-yl)pyridine 1-oxide] | 0.52 | 0.21

The remaining molecules from weak to strong by Ki [1], led by results:

Row | Ki [1] [nM] | Ki [2] [nM] | Compound
17 | 3.7 | 9.58 | COC(=O)Nc1ccc2c(c1)NC(=O)CCCCC(c1ccc(-c3c(F)ccc(Cl)c3F)c[n+]1[O-])c1cc-2[n+]([O-])cc1F (stereo not drawn) [Example 82, 9-(5-(3-chloro-2,6-difluorophenyl)-1-oxidopyridin-2-yl)-1^5-fluoro-2^4-((methoxycarbonyl)amino)-4-oxo-3-aza-1(2,4)-pyridin-1-iuma-2(1,2)-benzenacyclononaphane 1^1-oxide]
18 | 2.3 | 665 | CCc1[nH]c2nc1-c1ccc(NC(=O)OC)cc1NC(=O)CCCC[C@@H]2c1ccc(-c2c(F)cccc2-n2cc(C(F)(F)F)cn2)c[n+]1[O-] (single isomer, unassigned) [Example 138]
19 | 1.89 | 5.01 | O=C1CCCC[C@H](c2ccc(-c3c(F)ccc(Cl)c3F)c[n+]2[O-])c2cccc(c2)-c2ccc(Nc3cccnc3)cc2N1 [Example 47, 5-(3-chloro-2,6-difluorophenyl)-2-(4-oxo-2^4-(pyridin-3-ylamino)-3-aza-1(1,3),2(1,2)-dinenzenacyclononaphane-9-yl)pyridine 1-oxide]
20 | 1.4 | 26 | COC(=O)Nc1ccc2c(c1)NC(=O)CCCCC(c1ccc(-c3cc(Cl)ccc3-n3cnnn3)cn1)c1cc-2c(F)cn1 (stereo not drawn) [Example 61, methyl (9-(5-(5-chloro-2-(1h-tetrazol-1-yl)phenyl)pyridin-2-yl)-1^5-fluoro-4-oxo-3-aza-1(4,2)-pyridina-2(1,2)-benzenacyclononaphane-2^4-yl)carbamate]
21 | 0.83 | 2.95 | COC(=O)Nc1ccc2c(c1)NC(=O)CCCC[C@H](c1ccc(-c3cc(Cl)ccc3C(F)(F)F)c[n+]1[O-])c1cccc-2c1 (single isomer, unassigned) [Example 32]
22 | 0.55 | 1.35 | O=C1CCCCC(c2ccc(-c3c(-n4cnnn4)ccc(Cl)c3F)c[n+]2[O-])c2c[nH]c(n2)-c2cc(F)ccc2N1 (racemic) [Example 161, (Z)-5-(3-chloro-2-fluoro-6-(1H-tetrazol-1-yl)phenyl)-2-(2^5-fluoro-4-oxo-1^1H-3-aza-1(2,4)-imidazola-2(1,2)-benzenacyclononaphane-9-yl)pyridine 1-oxide]
23 | 0.41 | 1.94 | CC1CCCC(c2ccc(-c3c(-n4cnnn4)ccc(Cl)c3F)c[n+]2[O-])c2cccc(c2)-c2cc(F)ccc2NC1=O (stereo not drawn) [Example 8, 5,5-(3-chloro-2-fluoro-6-(1h-tetrazol-1-yl)phenyl)-2-(2^5-fluoro-5-methyl-4-oxo-3-aza-1(1,3),2(1,2)-dibenzenacyclononaphane-9-yl)pyridine 1-oxide]
24 | 0.21 | 1.87 | COC(=O)Nc1ccc2c(c1)NC(=O)CCCCC(c1ccc(-c3c(F)cccc3OC(F)F)c[n+]1[O-])c1nc-2c(C2CC2)[nH]1 (single isomer, unassigned) [Example 113-a, (Z)-2-(1^5-cyclopropyl-2^4-((methoxycarbonyl)amino)-4-oxo-1^1H-3-aza-1(4,2)-imidazola-2(1,2)-benzenacyclononaphane-9-yl)-5-(2-(difluoromethoxy)-6-fluorophenyl)pyridine 1-oxide]
